Data set [1] deals with men's medium- and long-distance runners. Kind of data set: Confirmation test for suppression of hemolysis due to oxidative damage (urinary 8-OHdG and isoprostane production rate). It is filed as in vivo, human. An excerpt: In order to confirm whether or not hemolysis due to oxidative damage is suppressed in the “astaxanthin group” of Example 1 (whether or not oxidative damage to erythrocytes (red blood cells) is suppressed), the production rate of 8-OHdG and isoprostane contained in the urine of the subjects of the “astaxanthin group” and the “control group” was investigated during the “test period” of Weeks 0 to 8 through the “acclimatization period (Weeks 0 to 4)” and the “observation period (Weeks 4 to 8)” of Example 1. The period of the confirmation test was set to the “test period” of Weeks 0 to 8 through the “acclimatization period (Weeks 0 to 4)” and the “observation period (Weeks 4 to 8)” because there was no causal relationship of whether or not hemolysis occurred due to oxidative damage with whether running training was performed in the highlands or flatlands.
Specifically, this test was performed as follows. Urine was collected from the subjects of the “astaxanthin group” and the “control group” at Week 0 (start date of test food intake), Week 4, and Week 8 (last day of test food intake), and the production rate of 8-OHdG and the production rate of isoprostane were measured. Thereafter, their averages were calculated, and then the transitions of the averages of the production rate of 8-OHdG and the production rate of isoprostane from Week 0 to Week 8 in each of the “astaxanthin group” and the “control group” thus calculated were observed.
The 8-OHdG concentration in the urine collected from the subjects of the “astaxanthin group” and the “control group” was measured using a New 8-OHdG Check ELISA (ELISA kit for 8-OHdG (product code: KOG-2005/E), available from NIKKEN SEIL Co., Ltd.) by an ELISA method. The production rate of 8-OHdG per body weight and time was calculated by the formula shown below.
Production rate of 8-OHdG (ng/kg/hr)={8-OHdG concentration in urine (ng/mL)×volume of urine collected (mL)}/{elapsed time since the last urination (h)×body weight of subject (kg)}
The isoprostane concentration in the urine collected from the subjects of the “astaxanthin group” and the “control group” was measured using a urinary isoprostane measurement ELISA kit (8-iso-PGF2a ELISA kit (product code: ADI-900-010), available from Enzo Life Sciences) by an ELISA method. The production rate of isoprostane per body weight and time was calculated by the formula shown below.
Production rate of isoprostane (ng/kg/hr)={isoprostane concentration in urine (ng/mL)×volume of urine collected (mL)}/{elapsed time since the last urination (h)×body weight of subject (kg)} […]

Data set [2] has as its system ordinary people. Kind of data set: Changes in number of erythrocytes and hemoglobin content of ordinary people (FIG. 3). As to conditions: between before and after taking the test food. It counts as in vivo, human.
The conditions of data set [3]: literature: Takahashi et al. 2004; cited from earlier work.
Data set [4] has as its system men's medium- and long-distance runners. Kind of data set: Confirmation test for suppression of exercise-induced hemolysis using astaxanthin. The settings on record: compared with control group. It is filed as in vivo, human. The procedure:
A confirmation test to confirm whether or not exercise-induced hemolysis that causes exercise-induced hemolytic anemia can be suppressed by orally taking a test food containing astaxanthin by a subject was conducted as follows.
Two types of test foods, a “capsules for astaxanthin group” containing a Haematococcus algae-derived pigment and a “capsules for control group” not containing the Haematococcus algae-derived pigment were prepared. Further, twenty-eight men's medium- and long-distance runners aged from 18 to 22 belonging to the athletic club of Tokai University as subjects were divided into two groups. Thirteen subjects were designated as the “astaxanthin group”, and fifteen subjects were designated as the “control group”. […]
Specifically, running training in the highlands was first conducted for 4 weeks, setting the period of running training in the highlands as “acclimatization period (Weeks 0 to 4)”, then blood samples were collected from the subjects of the “astaxanthin group” and the “control group”, to measure the number of erythrocytes (red blood cells), the hemoglobin content (amount of blood pigment; hemoglobin concentration), and the serum haptoglobin concentration. […] This test was conducted by observing the rate of change in the number of erythrocytes, the rate of change in the hemoglobin content (hemoglobin concentration), and the transition of the serum haptoglobin concentration from the start date to the end date of the observation period in each of the “astaxanthin group” and the “control group” thus measured. […]
The blood samples collected from the subjects of the “astaxanthin group” and the “control group” were treated with EDTA-2K to measure the number of erythrocytes using the sheath flow electrical resistance detection method. […] On the other hand, the collected blood samples were transferred to a tube containing EDTA-2Na and centrifuged to separate the plasma fraction, to measure the serum haptoglobin concentration using an ELISA kit for haptoglobin quantification (Quantikine Human Haptoglobin ELISA Kit (product code: DHAPGO), available from R&D Systems, Inc.). […]

Data set [5] has the same test system. Kind of data set: Confirmation test for antioxidant capacity (serum total antioxidant capacity). It is filed as in vivo, human. The settings on record: test period Week 0 to Week 8; astaxanthin group versus control group. Here is the method: In order to confirm the antioxidant capacity in the “astaxanthin group” of Example 1, the concentrations of water-soluble antioxidants contained in the serum of the subjects of the “astaxanthin group” and the “control group” were measured during the “test period” of Weeks 0 to 8 through the “acclimatization period (Weeks 0 to 4)” and the “observation period (Weeks 4 to 8)” of Example 1. The period of the confirmation test was set to the “test period” of Weeks 0 to 8 through the “acclimatization period (Weeks 0 to 4)” and the “observation period (Weeks 4 to 8)” because there was no causal relationship of the antioxidant capacity with whether running training was performed in the highlands or flatlands.
Specifically, this test was performed as follows. The blood samples were collected from the subjects of the “astaxanthin group” and the “control group” at Week 0 (start date of test food intake), Week 4, and Week 8 (last day of test food intake), to measure the concentrations of water-soluble antioxidants in serum and measure the total antioxidant capacity. Thereafter, the average was calculated, and the transition of the average of the total antioxidant capacity from Week 0 to Week 8 in each of the “astaxanthin group” and the “control group” thus calculated was observed. […]

For data set [6] the following is noted: cited from earlier work.

Read-outs that look alike come from different tables or passages of the source.

In the case of `CC1=C(/C=C/C(C)=C/C=C/C(C)=C/C=C/C=C(C)/C=C/C=C(C)/C=C/C2=C(C)C(=O)C(O)CC2(C)C)C(C)(C)CC(O)C1=O` (stereo not drawn) [astaxanthin, 3,3′-dihydroxy-β,β-carotene-4,4′-dione], the “average of measured values of the production rate of isoprostane (urine)” value was “low” in data set [1] (Week 0, astaxanthin group compared with control group); “no difference observed” in data set [1] (Week 4 and Week 8, astaxanthin group versus control group). For the same compound, the “average production rate (urine marker), comparison between before and after taking the test food” value in data set [1] (after intake compared with before intake (Week 0), within astaxanthin group) is “increased after intake”. In data set [1] (test period Week 0 to Week 8, astaxanthin group versus control group), the “average of measured values of the production rate of 8-OHdG (urine)” value was “no significant difference”. In data set [2], the “hemoglobin content (hemoglobin concentration)” value was “no significant difference”. Moreover, the number of erythrocytes entry in data set [2] was “no significant difference”. For the same compound, the mutagenicity entry in data set [3] is given as “no mutagenicity observed”. Further, in data set [4] (astaxanthin 12 mg/day oral (free form), observation period Weeks 4 to 8, running training in flatlands), the “rate of change in the number of erythrocytes during the observation period” value is listed as “high”. Further, the “serum haptoglobin concentration on the start date of the observation period” value in data set [4] (astaxanthin 12 mg/day oral, Week 4) is recorded as “almost no difference”. Also, the “serum haptoglobin concentration on the end date of the observation period” value in data set [4] (astaxanthin 12 mg/day oral, Week 8) is listed as “extremely high”. In addition, the “rate of change in the hemoglobin content (hemoglobin concentration) during the observation period” value in data set [4] (astaxanthin 12 mg/day oral, observation period Weeks 4 to 8, running training in flatlands) is “also high”. Besides, in data set [5], the “average of measured values of the total antioxidant capacity (serum)” value was “no significant difference”. Besides, the “antioxidant activity relative to vitamin E” value in data set [6] was 1000 times; in data set [6] (listed as Astaxanthin), “about 1,000 times”. For the same compound, the “antioxidant activity relative to β-carotene” value in data set [6] (relative to β-carotene) is reported as “about 40 times”.

The record behind these values is patent US20220370380A1, “EXERCISE-INDUCED HEMOLYSIS SUPPRESSANT AND COMPOSITION FOR SUPPRESSING/IMPROVING EXERCISE-INDUCED HEMOLYTIC ANEMIA” (AstaReal Co., Ltd., priority 2019, published 2022).
